In patent publication US9643967B2, “Pyrrolo[3,2-c]pyridine derivatives as TLR inhibitors” (TAKEDA PHARMACEUTICAL COMPANY LIMITED, priority 2013, dated 2017):
Where two headings read alike, the source gives them in different places.

Target: T1, mTLR7 (Mus musculus, UniProt P58681)
T1 construct: Splenocytes isolated from male C57/BL6 mice; from tissue; host or cells: splenocytes from the spleen of male C57BL/6 mice
T1 sequence (P58681 27-1050): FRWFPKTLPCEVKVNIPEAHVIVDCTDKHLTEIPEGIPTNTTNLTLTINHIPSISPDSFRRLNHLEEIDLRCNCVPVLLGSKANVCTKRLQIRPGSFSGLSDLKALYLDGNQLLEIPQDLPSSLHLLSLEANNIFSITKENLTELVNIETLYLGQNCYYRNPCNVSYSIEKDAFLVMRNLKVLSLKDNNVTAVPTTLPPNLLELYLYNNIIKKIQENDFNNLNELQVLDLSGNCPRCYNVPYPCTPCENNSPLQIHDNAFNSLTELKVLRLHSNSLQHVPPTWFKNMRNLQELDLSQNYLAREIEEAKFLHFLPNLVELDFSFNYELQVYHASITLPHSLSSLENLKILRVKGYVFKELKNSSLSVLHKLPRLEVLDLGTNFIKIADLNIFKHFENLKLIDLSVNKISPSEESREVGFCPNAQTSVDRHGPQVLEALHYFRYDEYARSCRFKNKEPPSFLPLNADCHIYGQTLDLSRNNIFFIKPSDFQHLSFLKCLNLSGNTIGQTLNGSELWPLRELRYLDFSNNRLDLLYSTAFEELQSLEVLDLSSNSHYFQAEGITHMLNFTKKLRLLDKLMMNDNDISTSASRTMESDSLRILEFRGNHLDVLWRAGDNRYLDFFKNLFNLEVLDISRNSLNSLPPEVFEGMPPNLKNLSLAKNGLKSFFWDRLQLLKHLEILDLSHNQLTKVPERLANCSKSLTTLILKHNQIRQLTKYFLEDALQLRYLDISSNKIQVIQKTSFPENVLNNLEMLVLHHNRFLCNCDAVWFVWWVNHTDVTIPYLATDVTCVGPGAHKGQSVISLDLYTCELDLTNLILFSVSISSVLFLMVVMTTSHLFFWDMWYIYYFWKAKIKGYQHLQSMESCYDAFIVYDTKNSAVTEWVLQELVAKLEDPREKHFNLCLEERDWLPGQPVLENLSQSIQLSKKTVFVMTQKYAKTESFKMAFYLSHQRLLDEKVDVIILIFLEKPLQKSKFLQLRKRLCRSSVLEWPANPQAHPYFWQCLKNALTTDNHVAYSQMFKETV
Test: mTLR7 antagonism (IL-6 and TNF-α release assay) in mouse splenocytes, R0006/DOTAP stimulated
Assay type: cell-based
Details: 1 μM, mouse splenocytes
Method in brief: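 C57BL6 splenocytes (0.2 million/well) preincubated 30 min with compounds (30 μM to 1 nM, 0.3% DMSO), then stimulated with R0006/DOTAP liposome complex at 1 μg/ml final, overnight, 37 °C, 5% CO2. IL-6 and TNF-α in supernatant by ELISA; IC50 from inhibition curves.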

[1] = IL-6 release, read-out: mTLR7 inhibitory activity (% at 1 μM), IL-6
[2] = TNF-α release, read-out: mTLR7 inhibitory activity (% at 1 μM), TNF-α

| inhibition at 1 µM [1] [%] | inhibition at 1 µM [2] [%] | mTLR7 inhibitory activity (% at 1 μM), IL-6 (IL-6 release) [%] | mTLR7 inhibitory activity (% at 1 μM), TNF-α (TNF-α release) [%] | Structure (SMILES) |
| --- | --- | --- | --- | --- |
| – | 100 | – | – | CC(C)N1CCN(c2ccc(-c3nccc4[nH]c(CCCN5CCOCC5)cc34)cc2)CC1 [Example C1, 4-[3-[4-[4-(4-isopropylpiperazin-1-yl)phenyl]-1H-pyrrolo[3,2-c]pyridin-2-yl]propyl]morpholine] |
| – | 100 | – | – | CN1CCN(c2ccc(-c3nccc4[nH]c(CCCN5CCOCC5)cc34)cc2)CC1 [Example C2, 4-[3-[4-[4-(4-methylpiperazin-1-yl)phenyl]-1H-pyrrolo[3,2-c]pyridin-2-yl]propyl]morpholine] |
| 100 | 100 | – | – | Cc1cc2[nH]c(CCCN3CCOCC3)cc2c(-c2ccc(N3CCN(C(C)C)CC3)cc2)n1 [Example C3, 4-[3-[4-[4-(4-isopropylpiperazin-1-yl)phenyl]-6-methyl-1H-pyrrolo[3,2-c]pyridin-2-yl]propyl]morpholine] |
| 100 | 97 | – | – | Cc1cc2[nH]c(CCCN3CCCCC3)cc2c(-c2ccc(N3CCN(C(C)C)CC3)cc2)n1 [Example C5, 4-[4-(4-isopropylpiperazin-1-yl)phenyl]-6-methyl-2-[3-(1-piperidyl)propyl]-1H-pyrrolo[3,2-c]pyridine] |
| 100 | 100 | – | – | Cc1cc2c(cc(CCCN3CCOCC3)n2C)c(-c2ccc(N3CCN(C(C)C)CC3)cc2)n1 [Example C6, 4-[3-[4-[4-(4-isopropylpiperazin-1-yl)phenyl]-1,6-dimethyl-pyrrolo[3,2-c]pyridin-2-yl]propyl]morpholine] |

The remaining lines, values behind:

| Structure (SMILES) | inhibition at 1 µM [1] [%] | inhibition at 1 µM [2] [%] | mTLR7 inhibitory activity (% at 1 μM), IL-6 (IL-6 release) [%] | mTLR7 inhibitory activity (% at 1 μM), TNF-α (TNF-α release) [%] |
| --- | --- | --- | --- | --- |
| Cc1cc2c(cc(CCN3CCOCC3)n2C)c(-c2ccc(N3CCN(C(C)C)CC3)cc2F)n1 [Example B19, 4-[2-[4-[2-fluoro-4-(4-isopropylpiperazin-1-yl)phenyl]-1,6-dimethyl-pyrrolo[3,2-c]pyridin-2-yl]ethyl]morpholine] | 100 | 100 | – | – |
| COc1cc(N2CCN(C(C)C)CC2)ccc1-c1nc(C)cc2c1cc(CCN1CCOCC1)n2C [Example B20, 4-[2-[4-[4-(4-isopropylpiperazin-1-yl)-2-methoxy-phenyl]-1,6-dimethyl-pyrrolo[3,2-c]pyridin-2-yl]ethyl]morpholine] | 70 | 57 | – | – |
| Cc1cc2c(cc(CCN3CCOCC3)n2C)c(-c2cccc(N3CCN(C(C)C)CC3)c2)n1 [Example B21, 4-[2-[4-[3-(4-isopropylpiperazin-1-yl)phenyl]-1,6-dimethyl-pyrrolo[3,2-c]pyridin-2-yl]ethyl]morpholine] | 100 | 100 | – | – |
| COc1cc(-c2nc(C)cc3c2cc(CCN2CCOCC2)n3C)ccc1N1CCN(C(C)C)CC1 [Example B22, 4-[2-[4-[4-(4-isopropylpiperazin-1-yl)-3-methoxy-phenyl]-1,6-dimethyl-pyrrolo[3,2-c]pyridin-2-yl]ethyl]morpholine] | 100 | 100 | – | – |
| Cc1cc2c(cc(CCN3CCOCC3)n2C)c(-c2ccc(N3CCN(C(C)C)[C@@H](C)C3)cc2)n1 [Example B23, 4-[2-[4-[4-[(3S)-4-isopropyl-3-methyl-piperazin-1-yl]phenyl]-1,6-dimethyl-pyrrolo[3,2-c]pyridin-2-yl]ethyl]morpholine] | 100 | 100 | – | – |
| Cc1cc2c(cc(CCN3CCOCC3)n2C)c(C2CCC(N3CCN(C(C)C)CC3)CC2)n1 (stereo not drawn) [Example B26, 4-[2-[4-[4-(4-isopropylpiperazin-1-yl)cyclohexyl]-1,6-dimethyl-pyrrolo[3,2-c]pyridin-2-yl]ethyl]morpholine] | – | – | 62 | 47 |
| Cc1cc2c(cc(CCN3CCOCC3)n2C)c(C2CCC(N3CCN(C(C)C)CC3)CC2)n1 (stereo not drawn) [Example B27, 4-[2-[4-[4-(4-isopropylpiperazin-1-yl)cyclohexyl]-1,6-dimethyl-pyrrolo[3,2-c]pyridin-2-yl]ethyl]morpholine] | – | – | 88 | 77 |
| Cc1cc2c(cc(CCN3CCOCC3)n2C)c(-c2ccc(C3CCN(C(C)C)CC3)cc2)n1 [Example B31, 4-[2-[4-[4-(1-isopropyl-4-piperidyl)phenyl]-1,6-dimethyl-pyrrolo[3,2-c]pyridin-2-yl]ethyl]morpholine] | 100 | 100 | – | – |
